Entries after “also recorded” stand apart in the source; their conditions may differ. Structures can show the parent of a compound that is named as a salt. Where two headings read alike, the source gives them in different places.
Columns and labels:
[1] = tested on: subjects with acute urticaria; conditions: for Developed other symptoms: No / Developed other symptoms: Yes / Needed additional medication: No / Needed additional medication: Yes / Needed medication prescribed at discharge: No / Needed medication prescribed at discharge: No medication prescribed / Needed medication prescribed at discharge: Yes / Recurrence of allergic symptoms: No / Recurrence of allergic symptoms: Yes / Returned to normal activity: No / Returned to normal activity: Yes: ITT; for Developed other symptoms: No / Developed other symptoms: Yes / Needed additional medication: No / Needed additional medication: Yes / Needed medication prescribed at discharge: No / Needed medication prescribed at discharge: No medication prescribed / Needed medication prescribed at discharge: Yes / Recurrence of allergic symptoms: No / Recurrence of allergic symptoms: Yes / Returned to normal activity: No / Returned to normal activity: Yes / Subjects who returned to the treatment center: No / Subjects who returned to the treatment center: Yes / Effectively treated subjects, yes / Subjects needed rescue drug, yes / Pruritus treatment success, yes: count (percentage); for Course of subject-rated sedation scores after treatment / Patient-rated pruritus severity score, 1 Hour Assessment, mean / Patient-rated pruritus severity score, 1 Hour Change from Baseline, mean / Patient-rated pruritus severity score, 2 Hour Assessment, mean / Patient-rated pruritus severity score, Discharge Assessment, mean / Patient-rated pruritus severity score, Discharge Change from Baseline, mean / Physician-rated urticaria/erythema score, 1 Hour Assessment, mean / Physician-rated urticaria/erythema score, 1 Hour Change from Baseline, mean / Physician-rated urticaria/erythema score, 2 Hour Assessment, mean / Physician-rated urticaria/erythema score, 2 Hour Change from Baseline, mean / Physician-rated urticaria/erythema score, Discharge Assessment, mean / Physician-rated urticaria/erythema score, Discharge Change from Baseline, mean / Subject-rated sedation score, 1 Hour Assessment, mean / Subject-rated sedation score, 1 Hour Change from Baseline, mean / Subject-rated sedation score, 2 Hour Assessment, mean / Subject-rated sedation score, 2 Hour Change from Baseline, mean / Subject-rated sedation score, Discharge Assessment, mean / Subject-rated sedation score, Discharge Change from Baseline, mean / Time spent at the treatment center, Mean (SD) / Time spent at the treatment center, Median / Patient-rated pruritus severity score, 2 Hour Change from Baseline, mean (primary efficacy measure) / Patient-rated pruritus severity score, Baseline Assessment, mean / Physician-rated urticaria/erythema score, Baseline Assessment, mean / Subject-rated sedation score, Baseline Assessment, mean / Subjects who returned to the treatment center: No / Subjects who returned to the treatment center: Yes: ITT Population; for Patient-rated pruritus severity score, 2 Hour Change from Baseline, mean (primary efficacy measure): LOCF; for Patient-rated pruritus severity score, Baseline Assessment, mean / Physician-rated urticaria/erythema score, Baseline Assessment, mean / Subject-rated sedation score, Baseline Assessment, mean: before treatment; for Effectively treated subjects, yes: Investigator's opinion; for Proportion of patients returning to any emergency department or clinic: clinical trials, treatment group; for Pruritus treatment success, yes: score reduction of at least 1 unit at 2 hr
Sprague-Dawley rats [2] = conditions: Phase IV
[3] = tested on: adult and pediatric patients; conditions: cited from earlier work
Sprague-Dawley rats [4] = tested on: Sprague-Dawley rats
Protocol: The study was conducted in four phases (Phase I, II/IIB, III and IV/IVB) via various methods of intravenous injection to rats. The intravenous route is the route of administration for the final finished product in human subjects. […] Phase III was conducted to evaluate repeat dosing using a Sponsor prepared human clinical formulation.
Phase I (Dose escalation): The test item dose formulation was administered in an escalating dose fashion by slow intravenous injection (over approximately 2 minutes) into the tail vein using a hypodermic needle attached to a syringe. A minimum 24-hour observation period was allowed between successive doses. The dose volume was 5 mL/kg for all animals. […] The protocol is described in Table 2.
Sprague-Dawley rats were used for all of the experiments.

[5] = injection; cited from earlier work
Sprague-Dawley rats [6] = conditions: rat, in vivo
[7] = listed as Cetirizine Injection, acetic acid, dihydrochloride
[8] = Sprague-Dawley, 30 mg/kg/day, 7 days

CN(C)CCOC(c1ccccc1)c1ccccc1 [Diphenhydramine Injection]
Developed other symptoms: No ([1]; 24 hrs after discharge): 107 (79.26)
Developed other symptoms: Yes ([1]; 24 hrs after discharge): 22 (16.30)
Needed additional medication: No ([1]; 24 hrs after discharge): 94 (69.63)
Needed additional medication: Yes ([1]; 24 hrs after discharge): 35 (25.93)
Needed medication prescribed at discharge: No ([1]; 24 hrs after discharge): 39 (28.89)
Needed medication prescribed at discharge: No medication prescribed ([1]; 24 hrs after discharge): 21 (15.56)
Needed medication prescribed at discharge: Yes ([1]; 24 hrs after discharge): 69 (51.11)
Recurrence of allergic symptoms: No ([1]; 24 hrs after discharge): 58 (42.96)
Recurrence of allergic symptoms: Yes ([1]; 24 hrs after discharge): 71 (52.59)
Returned to normal activity: No ([1]; 24 hrs after discharge): 29 (21.48)
Returned to normal activity: Yes ([1]; 24 hrs after discharge): 100 (74.07)
Developed other symptoms: No ([1]; 48 hrs after discharge): 114 (84.44)
Developed other symptoms: Yes ([1]; 48 hrs after discharge): 13 (9.63)
Needed additional medication: No ([1]; 48 hrs after discharge): 101 (74.81)
Needed additional medication: Yes ([1]; 48 hrs after discharge): 26 (19.26)
Needed medication prescribed at discharge: No ([1]; 48 hrs after discharge): 31 (22.96)
Needed medication prescribed at discharge: No medication prescribed ([1]; 48 hrs after discharge): 20 (14.81)
Needed medication prescribed at discharge: Yes ([1]; 48 hrs after discharge): 76 (56.30)
Recurrence of allergic symptoms: No ([1]; 48 hrs after discharge): 74 (54.81)
Recurrence of allergic symptoms: Yes ([1]; 48 hrs after discharge): 53 (39.26)
Returned to normal activity: No ([1]; 48 hrs after discharge): 22 (16.30)
Returned to normal activity: Yes ([1]; 48 hrs after discharge): 105 (77.78)
Course of subject-rated sedation scores after treatment [1]: remained above baseline through discharge
Patient-rated pruritus severity score, 1 Hour Assessment, mean [1]: 0.83
Patient-rated pruritus severity score, 1 Hour Change from Baseline, mean [1]: −1.36
Patient-rated pruritus severity score, 2 Hour Assessment, mean [1]: 0.70
Patient-rated pruritus severity score, Discharge Assessment, mean [1]: 0.67
Patient-rated pruritus severity score, Discharge Change from Baseline, mean [1]: −1.52
Physician-rated urticaria/erythema score, 1 Hour Assessment, mean [1]: 1.42
Physician-rated urticaria/erythema score, 1 Hour Change from Baseline, mean [1]: −0.42
Physician-rated urticaria/erythema score, 2 Hour Assessment, mean [1]: 1.33
Physician-rated urticaria/erythema score, 2 Hour Change from Baseline, mean [1]: −0.51
Physician-rated urticaria/erythema score, Discharge Assessment, mean [1]: 1.33
Physician-rated urticaria/erythema score, Discharge Change from Baseline, mean [1]: −0.51
Subject-rated sedation score, 1 Hour Assessment, mean [1]: 1.10
Subject-rated sedation score, 1 Hour Change from Baseline, mean [1]: 0.70
Subject-rated sedation score, 2 Hour Assessment, mean [1]: 0.88
Subject-rated sedation score, 2 Hour Change from Baseline, mean [1]: 0.49
Subject-rated sedation score, Discharge Assessment, mean [1]: 0.86
Subject-rated sedation score, Discharge Change from Baseline, mean [1]: 0.47
Time spent at the treatment center, Mean (SD) [1]: 2.07 (1.112) Hours
Time spent at the treatment center, Median [1]: 2.02 h
Patient-rated pruritus severity score, 2 Hour Change from Baseline, mean (primary efficacy measure) [1]: −1.50
Patient-rated pruritus severity score, 2 Hour Change from Baseline, mean (primary efficacy measure) ([1]; listed as diphenhydramine): −1.50 (0.984)
Patient-rated pruritus severity score, Baseline Assessment, mean [1]: 2.19
Physician-rated urticaria/erythema score, Baseline Assessment, mean [1]: 1.84
Subject-rated sedation score, Baseline Assessment, mean [1]: 0.39
Subjects who returned to the treatment center: No [1]: 116 (85.93)
Subjects who returned to the treatment center: Yes [1]: 19 (14.07)
Time spent at the treatment center, Mean (SD) ([1]; listed as diphenhydramine): 2.1 (1.1) Hours
Effectively treated subjects, yes [1]: 93 (68.89)
Proportion of patients returning to any emergency department or clinic [1]: 14%
Subjects needed rescue drug, yes [1]: 37 (27.41)
Pruritus treatment success, yes [1]: 111 (82.22)

O=C(O)COCCN1CCN(C(c2ccccc2)c2ccc(Cl)cc2)CC1 (racemic) [cetirizine dihydrochloride, (±)-[2-[4-[(4-chlorophenyl)phenylmethyl]-1-piperazinyl]ethoxy] acetic acid, dihydrochloride]
Other clinical signs (Sprague-Dawley rats [2]; 30 mg/kg/day, as of Day 1, acetic acid, dihydrochloride, 30 mg/kg/day): Increases in activity and changes in posture (hunched back); also recorded: Changes in posture and increased activity were noted
Dark focus of the lungs (Sprague-Dawley rats [2]; necropsy): 2/4
Macroscopic findings at the dosing site (Sprague-Dawley rats [2]; necropsy): no findings at the dosing site were observed
Most commonly reported adverse reactions in adult overdose cases ([3]; oral doses of 70 mg to 800 mg, patients 18 to 81 years): somnolence and fatigue
Adverse reactions reported in pediatric overdose cases ([3]; oral doses of 90 mg to 300 mg, patients 18 months to 15 years): somnolence, difficulty walking, agitation/irritability, hard to swallow/articulate clearly, tachycardia, vomiting, mydriasis, and elevated creatinine phosphokinase
Developed other symptoms: No ([1]; 24 hrs after discharge): 108 (85.04)
Developed other symptoms: Yes ([1]; 24 hrs after discharge): 12 (9.45)
Needed additional medication: No ([1]; 24 hrs after discharge): 94 (74.02)
Needed additional medication: Yes ([1]; 24 hrs after discharge): 26 (20.47)
Needed medication prescribed at discharge: No ([1]; 24 hrs after discharge): 41 (32.28)
Needed medication prescribed at discharge: No medication prescribed ([1]; 24 hrs after discharge): 10 (7.87)
Needed medication prescribed at discharge: Yes ([1]; 24 hrs after discharge): 69 (54.33)
Recurrence of allergic symptoms: No ([1]; 24 hrs after discharge): 66 (51.97)
Recurrence of allergic symptoms: Yes ([1]; 24 hrs after discharge): 54 (42.52)
Returned to normal activity: No ([1]; 24 hrs after discharge): 17 (13.39)
Returned to normal activity: Yes ([1]; 24 hrs after discharge): 103 (81.10)
Developed other symptoms: No ([1]; 48 hrs after discharge): 111 (87.40)
Developed other symptoms: Yes ([1]; 48 hrs after discharge): 10 (7.87)
Needed additional medication: No ([1]; 48 hrs after discharge): 102 (80.31)
Needed additional medication: Yes ([1]; 48 hrs after discharge): 19 (14.96)
Needed medication prescribed at discharge: No ([1]; 48 hrs after discharge): 46 (36.22)
Needed medication prescribed at discharge: No medication prescribed ([1]; 48 hrs after discharge): 11 (8.66)
Needed medication prescribed at discharge: Yes ([1]; 48 hrs after discharge): 64 (50.39)
Recurrence of allergic symptoms: No ([1]; 48 hrs after discharge): 85 (66.93)
Recurrence of allergic symptoms: Yes ([1]; 48 hrs after discharge): 36 (28.35)
Returned to normal activity: No ([1]; 48 hrs after discharge): 9 (7.09)
Returned to normal activity: Yes ([1]; 48 hrs after discharge): 112 (88.19)
Course of subject-rated sedation scores after treatment [1]: returning to baseline sedation by 2 hrs
Patient-rated pruritus severity score, 1 Hour Assessment, mean [1]: 0.81
Patient-rated pruritus severity score, 1 Hour Change from Baseline, mean [1]: −1.39
Patient-rated pruritus severity score, 2 Hour Assessment, mean [1]: 0.60
Patient-rated pruritus severity score, Discharge Assessment, mean [1]: 0.58
Patient-rated pruritus severity score, Discharge Change from Baseline, mean [1]: −1.62
Physician-rated urticaria/erythema score, 1 Hour Assessment, mean [1]: 1.27
Physician-rated urticaria/erythema score, 1 Hour Change from Baseline, mean [1]: −0.54
Physician-rated urticaria/erythema score, 2 Hour Assessment, mean [1]: 1.19
Physician-rated urticaria/erythema score, 2 Hour Change from Baseline, mean [1]: −0.63
Physician-rated urticaria/erythema score, Discharge Assessment, mean [1]: 1.17
Physician-rated urticaria/erythema score, Discharge Change from Baseline, mean [1]: −0.65
Subject-rated sedation score, 1 Hour Assessment, mean [1]: 0.62
Subject-rated sedation score, 1 Hour Change from Baseline, mean [1]: 0.24
Subject-rated sedation score, 2 Hour Assessment, mean [1]: 0.46
Subject-rated sedation score, 2 Hour Change from Baseline, mean [1]: 0.08
Subject-rated sedation score, Discharge Assessment, mean [1]: 0.46
Subject-rated sedation score, Discharge Change from Baseline, mean [1]: 0.08
Time spent at the treatment center, Median [1]: 1.42 h
Time spent at the treatment center shorter than with diphenhydramine injection ([1]; ITT Population analysis): 22 min
Patient-rated pruritus severity score, 2 Hour Change from Baseline, mean (primary efficacy measure) ([1]; acetic acid, dihydrochloride): −1.61 (0.944)
Patient-rated pruritus severity score, 2 Hour Change from Baseline, mean (primary efficacy measure) [1, 7]: −1.61
Patient-rated pruritus severity score, Baseline Assessment, mean [1]: 2.20
Physician-rated urticaria/erythema score, Baseline Assessment, mean [1]: 1.81
Subject-rated sedation score, Baseline Assessment, mean [1]: 0.39
Subjects who returned to the treatment center: No [1]: 120 (94.49)
Subjects who returned to the treatment center: Yes [1]: 7 (5.51)
Time spent at the treatment center, Mean (SD) [1, 7]: 1.71 (0.868) Hours
Time spent at the treatment center, Mean (SD) ([1]; listed as injectable cetirizine, acetic acid, dihydrochloride): 1.7 (0.9) Hours
Effectively treated subjects, yes [1]: 103 (81.10)
Time spent at the treatment center shorter than with diphenhydramine injection ([1]; PP Population analysis): 27 min
Proportion of patients returning to any emergency department or clinic [1]: 6%
Subjects needed rescue drug, yes [1]: 19 (14.96)
Least squares estimated treatment difference, 2 hr change in pruritus severity score ([1]; diphenhydramine-cetirizine, 95% CI=−0.281, 0.396): 0.06
Effectiveness compared to diphenhydramine injection ([1]; non-inferiority margin −0.50, 2 hr pruritus change): non-inferior
Pruritus treatment success, yes [1]: 110 (86.61)
Animals found dead (Sprague-Dawley rats [4]; Sprague-Dawley, rat, in vivo, 50 mg/kg): 2/4
Mortality dose level as multiple of human clinical dose (Sprague-Dawley rats [4]; Sprague-Dawley, rat, in vivo, 14 days): 58 times of human clinical dose
Animals found dead (Sprague-Dawley rats [4]; rat, in vivo, 100 mg/kg): ¾
Dose levels associated with mortality (Sprague-Dawley rats [4]; single IV injection, tail vein): ≥ 50 mg/kg
Hemolysis [5]: free of hemolysis
Animals with findings at the dosing site (tail), dark area (Sprague-Dawley rats [6]; [8]): 2/10
Enlargement of bronchial lymph node (Sprague-Dawley rats [6]; [8]): 2/10
Animals affected by macroscopic findings at the dosing site (tail) (Sprague-Dawley rats [6]; Sprague-Dawley, 2 days): 8/10
Dark focus/area/mottling at the dosing site (Sprague-Dawley rats [6]; Sprague-Dawley, 2 days): 8/10
Scab at the dosing site (Sprague-Dawley rats [6]; Sprague-Dawley, 2 days): 1/10
Thickening at the dosing site (Sprague-Dawley rats [6]; Sprague-Dawley, 2 days): 6/10
Body weight (Sprague-Dawley rats [6]): no test item related effects noted

OCCOCCN1CCN(C(c2ccccc2)c2ccc(Cl)cc2)CC1 (stereo not shown) [hydroxyzine]
Hemolysis [5]: significant problem
